Our source for the IC50 values is patent publication US20240246918A1, “COMPOUNDS AND COMPOSITIONS AS EIF4E INHIBITORS AND THE USES THEREOF” (Ribometrix, Inc., priority 2022, published 2024).

pIC50: −log10 of the molar value.

One experiment deals with T1, human eIF4E protein (Homo sapiens, UniProt P06730).
T1 construct: purchased Novus NBP-45314
Put plainly: Biochemical competitive binding assay (TR-FRET competition, EDA-m7GDP-ATTO-647N probe). The note with it: read-out: hEIF4E TR-FRET IC50. The method, boiled down: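 His-tagged human eIF4E (4 nM) was preincubated with Eu-anti-His antibody (2.5 nM) and added to compound (11-point, 4-fold dilutions) for 15 min. Then 5 nM EDA-m7GDP-ATTO-647N was added for 15 min, in HEPES pH 7.5, 100 mM KCl. The 665/620 TR-FRET ratio was normalized to controls, and IC50 was taken from 4-parameter fits.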
For orientation: TR-FRET usually uses a lanthanide donor and a delayed reading to cut background.

Experiment [1] deals with COLO 205 colorectal tumor cells. Put plainly: Tumor cell viability inhibition assay (CellTiter-Glo 2.0, 72 hours). The experiment is classed as cell-based. Conditions: Homo sapiens, COLO 205, 72 h, COLO 205 cell viability. The method, boiled down: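 COLO 205 cells (1500/well, RPMI-1640 + 10% FBS) exposed for 72 h to an 11-point, 4-fold dilution series; cellular ATP read by CellTiter-Glo 2.0 luminescence. Data normalized to DMSO and maximum-inhibition controls; IC50 from 4-parameter curve fit.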

Experiment [2] deals with cyclin D1 protein levels in COLO 205 cells. The experiment in a line: Cyclin D1 cellular inhibition assay (HTRF, 6 hours). The experiment is classed as cell-based. Conditions: Homo sapiens, COLO 205, 6 h, 6 hours of compound treatment, Cyclin D1 protein levels by HTRF, read-out: COLO 205 6 h Cyclin D1 TR-FRET IC50. The method, then: The effect of compound treatment on cyclin D1 protein levels in COLO 205 cells was assessed, as follows. Test compound plates were prepared with a Tecan D300e Digital Dispenser as 11-point concentration-response curves with a final DMSO concentration of 1%. COLO 205 (ATCC, CCL-222) colorectal tumor cells were seeded to assay-ready plates in RPMI-1640 medium supplemented with 10% FBS at 20,000 cells in a volume of 6 microliters per well. After 6 hours of compound treatment, cells were lysed and Cyclin D1 protein levels were assessed by an HTRF assay (PerkinElmer #64CYCD1ITPEG), according to the manufacturer's protocol. Time-resolved fluorescence was measured using a Clariostar Plus microplate reader (BMG Labtech) or equivalent. After normalization to the average of DMSO control and maximum inhibition control wells, concentration-response data were plotted and standard 4-parameter curve fitting (GraphPad Prism v9.4.1) was utilized to determine IC50 values.

T1 sequence (P06730 whole entry): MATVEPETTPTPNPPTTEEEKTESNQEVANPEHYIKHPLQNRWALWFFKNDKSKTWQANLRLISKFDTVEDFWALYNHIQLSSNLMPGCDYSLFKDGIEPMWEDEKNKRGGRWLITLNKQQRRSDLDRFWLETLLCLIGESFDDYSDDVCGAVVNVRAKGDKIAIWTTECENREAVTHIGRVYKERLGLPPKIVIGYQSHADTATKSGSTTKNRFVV

For the compound `Cc1cc(-c2cc(Cl)ccc2OCCn2c(C)nc3c(c2=O)CC(N(C)Cc2ccc(C(F)(F)F)cc2)CC3)c2scc(C(=O)O)c2n1` (stereo not drawn) [Compound 201, 7-(5-chloro-2-(2-(2-methyl-6-(methyl(4-(trifluoromethyl)benzyl)amino)-4-oxo-5,6,7,8-tetrahydroquinazolin-3(4H)-yl)ethoxy)phenyl)-5-methylthieno[3,2-b]pyridine-3-carboxylic acid], the pIC50 at human eIF4E protein is > 7.00; in experiment [1] it was > 5.30; in experiment [2], > 5.30.
For `Cc1cc(-c2cc(Cl)ccc2OCCn2c(C)nc3c(c2=O)CC(N(C)Cc2cc[nH]n2)CC3)c2scc(C(=O)O)c2n1` (stereo not drawn) [Compound 186], the pIC50 was > 7.00 on human eIF4E protein, < 4.70 in experiment [1] and < 4.70 in experiment [2].
`Cc1cc(-c2cc(Cl)ccc2OCCn2c(C)nc3c(c2=O)CC(N(C)Cc2ccnc(C(F)(F)F)c2)CC3)c2scc(C(=O)O)c2n1` (stereo not drawn) [Compound 198]: the pIC50 at human eIF4E protein is > 7.00; in experiment [1], > 5.30; in experiment [2] it was > 5.30.
For `Cc1cc(-c2cc(Cl)ccc2OCCn2c(C)nc3c(c2=O)CC(N(C)Cc2ccnnc2)CC3)c2scc(C(=O)O)c2n1` (stereo not drawn) [Compound 188], the pIC50 on human eIF4E protein was > 7.00; in experiment [1], < 4.70; in experiment [2], < 4.70.
With `Cc1cc(-c2cc(Cl)ccc2OCCn2c(C)nc3c(c2=O)CC(N2CCc4sccc4C2)CC3)c2scc(C(=O)O)c2n1` (stereo not drawn) [Compound 181], the pIC50 at human eIF4E protein is > 7.00; in experiment [1] it was > 5.30; in experiment [2], > 5.30.
In the case of `Cc1cc(-c2cc(Cl)ccc2OCCn2c(C)nc3c(c2=O)C[C@H](N(C)C[C@H]2C[C@@H](C(F)(F)F)C2)CC3)c2scc(C(=O)O)c2n1` (stereo in doubt) [Compound 223], the pIC50 at human eIF4E protein was > 7.00; in experiment [1], > 5.30; in experiment [2], > 5.30.
Regarding `Cc1cc(-c2cc(Cl)ccc2OCCn2c(C)nc3c(c2=O)CC(N(C)CC2CC(F)(F)C2)CC3)c2scc(C(=O)O)c2n1` (single isomer, unassigned) [Compound 258], the pIC50 is > 7.00 on human eIF4E protein, > 5.30 in experiment [1] and > 5.30 in experiment [2].
For `Cc1cc(-c2cc(Cl)ccc2OCCn2c(C)nc3c(c2=O)CC(N(C)Cc2cnc(C)s2)CC3)c2scc(C(=O)O)c2n1` (stereo not drawn) [Compound 185], the pIC50 at human eIF4E protein was > 7.00; in experiment [1], > 5.30; in experiment [2] it was > 5.30.
Consider `Cc1csc(CN(C)C2CCc3nc(C)n(CCOc4ccc(Cl)cc4-c4cc(C)nc5c(C(=O)O)csc45)c(=O)c3C2)n1` (stereo not drawn) [Compound 182], for which the pIC50 was > 7.00 at human eIF4E protein, > 5.30 in experiment [1] and > 5.30 in experiment [2].
For `COc1cc(CN(C)C2CCc3nc(C)n(CCOc4ccc(Cl)cc4-c4cc(C)nc5c(C(=O)O)csc45)c(=O)c3C2)ccn1` (single isomer, unassigned) [Compound 217], the values for the pIC50 (on human eIF4E protein; in experiment [1]; in experiment [2]) were > 7.00, > 5.30 and > 5.30, respectively.
Regarding `Cc1cc(-c2cc(Cl)ccc2OCCn2c(C)nc3c(c2=O)C[C@@H](N2C[C@H]4CC(F)(F)[C@H]4C2)CC3)c2scc(C(=O)O)c2n1` (single isomer, unassigned) [Compound 148], the pIC50 at human eIF4E protein was > 7.00; in experiment [1] it was > 5.30; in experiment [2], > 5.30.
On to `Cc1cc(-c2cc(Cl)ccc2OCCn2c(C)nc3c(c2=O)CC(NCC2CC(F)(F)C2)CC3)c2scc(C(=O)O)c2n1` (stereo not drawn) [Compound 153], for which the pIC50 is > 7.00 at human eIF4E protein, 4.70 to 5.30 in experiment [1] and 4.70 to 5.30 in experiment [2].
As for `Cc1cc(-c2cc(Cl)ccc2OCCn2c(C)nc3c(c2=O)C[C@@H](N(C)C[C@H]2C[C@H](C(F)(F)F)C2)CC3)c2scc(C(=O)O)c2n1` (single isomer, unassigned) [Compound 221], the pIC50 on human eIF4E protein is > 7.00; in experiment [1] it was > 5.30; in experiment [2], > 5.30.
For the compound `Cc1cc(-c2cc(Cl)ccc2OCCn2c(C)nc3c(c2=O)CC(N2CCC4(CCC(F)(F)CC4)C2)CC3)c2scc(C(=O)O)c2n1` (stereo not drawn) [Compound 170], the pIC50 on human eIF4E protein was > 7.00; in experiment [1], > 5.30; in experiment [2], > 5.30.
Turning to `Cc1cc(-c2cc(Cl)ccc2OCCn2c(C)nc3c(c2=O)CC(N2CCc4ncncc4C2)CC3)c2scc(C(=O)O)c2n1` (stereo not drawn) [Compound 157], the pIC50 on human eIF4E protein is > 7.00; in experiment [1], 4.70 to 5.30; in experiment [2], 4.70 to 5.30.

The pIC50 is the negative decadic logarithm of the IC50, by convention in mol/L.
